In PubChem BioAssay (NCI) one finds GI50 and TGI data, which are given here for 4 compounds.

In general, GI50 refers to the concentration at which growth is held to half of that of the control. Broadly, the TGI is the concentration giving total growth inhibition. Higher therefore signals lower sensitivity of the cells.

Each structure is given as a SMILES string.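 Following 48 hours of exposure in 96-well plates, responses at five concentrations were used to interpolate endpoints linearly. At the GI50, growth is halved. TGI: concentration producing complete growth inhibition.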

Some test systems named below: SF-295 CNS; UACC-62 melanoma; HCT-116 colon; RPMI-8226 leukemia; DU-145 prostate; K-562 leukemia; PC-3 prostate; MOLT-4 leukemia; A498 renal; MALME-3M melanoma.
Common to all, as to assay: DTP human tumour cell line panel, 48 h

Take `OC(COc1cccc2ccccc12)CN1CCN(c2ccccc2Cl)CC1` (centres undefined): the GI50 was 11.9 µM in the experiment on SF-295 CNS; 12.2 µM in the experiment on UACC-62 melanoma; 10.8 µM in the experiment on HCT-116 colon; 13.2 µM with RPMI-8226 leukemia; 14.6 µM with DU-145 prostate; 4.58 µM in the experiment with K-562 leukemia. Further, the GI50 in the experiment on PC-3 prostate was 7.88 µM; in the experiment with MOLT-4 leukemia it was 12.6 µM; in the experiment on A498 renal it was 12.3 µM; in the experiment with MALME-3M melanoma, 10.3 µM. The total growth inhibition concentration (TGI) amounted to 26.9 µM in the experiment with SF-295 CNS; 24.8 µM with UACC-62 melanoma; 24.5 µM in the experiment with HCT-116 colon; 38.3 µM in the experiment on RPMI-8226 leukemia; 28.5 µM with DU-145 prostate; 17.6 µM in the experiment on K-562 leukemia. Besides, the concentration for total growth inhibition (TGI) with PC-3 prostate is 23.2 µM; in the experiment on MOLT-4 leukemia it was 59.5 µM; in the experiment on A498 renal it was 24.9 µM; with MALME-3M melanoma, 25.9 µM.
Take `COc1cccc(C2=C(c3cn(C)c4cccc(OC)c34)C(=O)NC2=O)c1`: the GI50 in the experiment on SF-295 CNS is 7.05 µM; with UACC-62 melanoma, 7.17 µM; in the experiment on HCT-116 colon, 9.55 µM; in the experiment with RPMI-8226 leukemia, 9.09 µM; with DU-145 prostate it was 10.7 µM; with K-562 leukemia it was 3.51 µM. The GI50 in the experiment with PC-3 prostate is 8.02 µM; in the experiment on MOLT-4 leukemia, 12.5 µM; in the experiment on A498 renal, 4.9 µM; with MALME-3M melanoma, above 16.6 µM. Moreover, the TGI is above 25 µM in the experiment with SF-295 CNS; above 25 µM with UACC-62 melanoma; above 25 µM in the experiment on HCT-116 colon; above 24.1 µM in the experiment with RPMI-8226 leukemia; above 25 µM with DU-145 prostate; above 25 µM in the experiment on K-562 leukemia. The TGI in the experiment with PC-3 prostate, in the experiment with MOLT-4 leukemia, in the experiment with A498 renal and with MALME-3M melanoma was above 25 µM each time.
Regarding `O=C(NCCCCOCC#Cc1ccccc1C#CCS(=O)(=O)c1ccccc1)c1cc2ccccc2[nH]1`, the GI50 in the experiment with SF-295 CNS was 15.9 µM; in the experiment on UACC-62 melanoma it was 8.29 µM; in the experiment with HCT-116 colon it was 9.63 µM; with RPMI-8226 leukemia, 2.78 µM; in the experiment on DU-145 prostate, 18.1 µM; with K-562 leukemia, 6.83 µM. Moreover, the GI50 in the experiment on PC-3 prostate was 7.1 µM; in the experiment on A498 renal, 25.8 µM; in the experiment on MALME-3M melanoma, 7.85 µM. Besides, the TGI is above 44.7 µM with SF-295 CNS; 16.6 µM in the experiment on UACC-62 melanoma; 26.6 µM in the experiment on HCT-116 colon; 13.2 µM in the experiment with RPMI-8226 leukemia; above 50 µM in the experiment on DU-145 prostate; above 50 µM in the experiment with K-562 leukemia. In addition, the concentration for total growth inhibition (TGI) with PC-3 prostate is 36.5 µM; with MOLT-4 leukemia, above 10.1 µM; with A498 renal, above 50 µM; in the experiment with MALME-3M melanoma, 24.1 µM.
Regarding `O=[As]c1ccc(C(=O)c2ccc(Oc3ccccc3)cc2)cc1` (centres undefined), the 50% growth inhibitory concentration (GI50) with SF-295 CNS was 0.15 µM; with UACC-62 melanoma it was 0.059 µM; with HCT-116 colon, 0.0415 µM; in the experiment on RPMI-8226 leukemia it was 0.0267 µM; with DU-145 prostate it was 0.0348 µM; in the experiment on K-562 leukemia it was 0.0188 µM. Moreover, the GI50 in the experiment on PC-3 prostate was 0.0349 µM; in the experiment with MOLT-4 leukemia, 0.0333 µM; in the experiment with A498 renal it was 0.141 µM; in the experiment on MALME-3M melanoma, 0.068 µM. The TGI in the experiment with SF-295 CNS was determined as 0.327 µM; with UACC-62 melanoma, 0.185 µM; in the experiment on HCT-116 colon, 0.152 µM; in the experiment on RPMI-8226 leukemia, 0.105 µM; in the experiment on DU-145 prostate it was 0.123 µM; in the experiment on K-562 leukemia it was 0.117 µM. Also, the TGI in the experiment with PC-3 prostate stood at 0.142 µM; with MOLT-4 leukemia it was 0.19 µM; with A498 renal it was 0.295 µM; with MALME-3M melanoma it was 0.271 µM.
